Measured values as given in patent publication EP0705841A1, “Peptides havng antigenic activity against hepatitis A virus (HAV)” (SORIN BIOMEDICA S.p.A., priority 1994, dated 1996).

Tested on: 8F4H9B monoclonal antibody
Assay: ELISA assay: reactivity of peptides adhering to the solid phase with the 8F4H9B monoclonal antibody
Assay type: binding, mice
Conditions: peptides in monomer form adhering to solid phase (fig.1, fig.2)
Method: The solid phase was obtained on PVC trays (Nunc), that were added with 200 µl of a peptide solution at various concentrations in a carbonate buffer 50 mM, pH 9.6. Trays were incubated overnight at 4°C when added with the monomer peptide solution, and for 2 hours at 37°C when added with the tetramer peptide solution.
Trays were saturated with 300 µl of a solution of gelatin 2%, in Tris-HCl, 0.1M, pH 7.5, for 1 hour at room temperature. Antibodies were diluted in a solution, comprising PBS, EDTA 0.03%, Triton-X100 0.2%, Tween 20 0.2% and BSA fraction V 3.2%; and incubated for 3 hours at 37°C. Trays were washed four times with an ET-System Sorin automatic washer, using PBS/Tween 20 0.1%, and the reaction detected by adding 100 µl of a chromogen and a substrate (Sorin DEIA KIT). The reaction was blocked after 30 min. by adding 200 µl of H₂SO₄ 1N, and the absorbance read at 450 nm.

Substance | reactivity with the 8F4H9B-HRP monoclonal antibody
DVMYLH [peptide 36 (Table 1)] | reacted with the antibody, even if having shown a lesser reactivity than the PM peptide
DFMWMH [peptide 17 (Table 1)] | reacted with the antibody, even if having shown a lesser reactivity than the PM peptide
